Assay results published in patent publication US8280710B2, “Method for determining thermal stability of collagen or collagen-like peptide” (University of Medicine and Dentistry of New Jersey, priority 2005, dated 2012).
Non-standard residues stand in square brackets, D forms with d. Residues, ends and D or L forms follow the SMILES beside them. Hyp = O=C(O)[C@@H]1C[C@@H](O)CN1

Tests used:
[1] = peptide of Table 3, defined standard conditions
Description: The propensity measurements for all 20 amino acid residues in the Xaa1 position in a Gly-Xaa1-Hyp context and all 20 amino acid residues in the Xaa2 position in a Gly-Pro-Xaa2 context were determined by measuring thermal stability of host-guest peptides (Persikov, et al. (2000) supra).
The Tm values of all host-guest peptides were measured under a set of standard conditions, with c=1 mg/ml in phosphate-buffered saline, pH 7.0, and with a heating rate average of 0.1° C./minute (Persikov, et al. (2004) supra).

[2] = Method for predicting global Tm of collagen peptides from amino acid sequence; conditions: observed minus predicted, peptides of Table 3
Description: The global thermal stability of homotrimeric triple helical peptides with length of at least 6 tripeptide units and, in most cases, containing 10 tripeptide units was determined as follows.
For the total number of triplets n in a given peptide, the base Tm^0(n) for (Pro-Hyp-Gly) or (Pro-Pro-Gly)n was calculated from the length dependence (Equation 1), including any effect of blocking groups;
The melting temperature value was decreased for every triplet in the sequence that was not Gly-Pro-Hyp, subtracting a value of ΔTm^GXY (Table 1). The N-terminal and C-terminal tripeptide units were excluded from the calculation due to the staggering of the chains and the disorder for the peptide ends (Bella et al. (1994) supra; Li, et al. (1993) Biochemistry 32:7377-7387; Kramer, et al. (2001) J. Mol. Biol. 301:1191-1205).
The resulting value for the peptide melting temperature was adjusted using the ΔTm^int values for interactions between neighboring tripeptides (Table 2).
The method was formulated as follows.
To extrapolate the dependence of the Tm of the host peptides on peptide length, the experimental values for (Pro-Hyp-Gly)n and (Pro-Pro-Gly)n versus n, where n is the number of tripeptide units, were fit to the exponential decay function
[formula] where Tm^0(n) is defined as the base thermal stability of the repeating polytripeptide standard, Tm^max is the maximum melting temperature, and the constant n0 represents the length of the repeating peptide with Tm=0.

Structure (SMILES) | Tm^obs [1] [°C] | ΔTm [2] [°C]
CC(=O)NCC(=O)N1CCC[C@H]1C(=O)N1C[C@H](O)C[C@H]1C(=O)NCC(=O)N1CCC[C@H]1C(=O)N1C[C@H](O)C[C@H]1C(=O)NCC(=O)N[C@@H](CCCNC(=N)N)C(=O)N1C[C@H](O)C[C@H]1C(=O)NCC(=O)N[C@@H](CCCCN)C(=O)N[C@@H](CCCNC(=N)N)C(=O)NCC(=O)N[C@@H](CCCCN)C(=O)N[C@@H](CCC(N)=O)C(=O)NCC(=O)N1CCC[C@H]1C(=O)N1C[C@H](O)C[C@H]1C(=O)NCC(=O)N1CCC[C@H]1C(=O)N1C[C@H](O)C[C@H]1C(=O)NCC(=O)N1CCC[C@H]1C(=O)N1C[C@H](O)C[C@H]1C(=O)NCC(=O)NCC(N)=O [AchE-HG-C3, Ac-GPO-GPO-GRO-GKR-GKQ-GPO-GPO-GPO-GG-NH2] (Ac-GP[Hyp]GP[Hyp]GR[Hyp]GKRGKQGP[Hyp]GP[Hyp]GP[Hyp]GG-NH2) | 21.3 | −2.7
CC(=O)NCC(=O)N1CCC[C@H]1C(=O)N1C[C@H](O)C[C@H]1C(=O)NCC(=O)N1CCC[C@H]1C(=O)N1C[C@H](O)C[C@H]1C(=O)NCC(=O)N[C@@H](CCCNC(=N)N)C(=O)N1C[C@H](O)C[C@H]1C(=O)NCC(=O)N[C@@H](CCCCN)C(=O)N[C@@H](CCCNC(=N)N)C(=O)NCC(=O)N[C@@H](CCCCN)C(=O)N[C@@H](CCC(N)=O)C(=O)NCC(=O)N[C@@H](CCC(N)=O)C(=O)N[C@@H](CCCCN)C(=O)NCC(=O)N1CCC[C@H]1C(=O)N1C[C@H](O)C[C@H]1C(=O)NCC(=O)N1CCC[C@H]1C(=O)N1C[C@H](O)C[C@H]1C(=O)NCC(=O)NCC(N)=O [AchE-HG-C4, Ac-GPO-GPO-GRO-GKR-GKQ-GQK-GPO-GPO-GG-NH2] (Ac-GP[Hyp]GP[Hyp]GR[Hyp]GKRGKQGQKGP[Hyp]GP[Hyp]GG-NH2) | 8.1 | −1.2
CC(=O)NCC(=O)N1CCC[C@H]1C(=O)N1C[C@H](O)C[C@H]1C(=O)NCC(=O)N1CCC[C@H]1C(=O)N1C[C@H](O)C[C@H]1C(=O)NCC(=O)N1CCC[C@H]1C(=O)N1C[C@H](O)C[C@H]1C(=O)NCC(=O)N[C@@H](CCCNC(=N)N)C(=O)N[C@@H](CCCCN)C(=O)NCC(=O)N[C@@H](CCCNC(=N)N)C(=O)N1C[C@H](O)C[C@H]1C(=O)NCC(=O)N1CCC[C@H]1C(=O)N1C[C@H](O)C[C@H]1C(=O)NCC(=O)N1CCC[C@H]1C(=O)N1C[C@H](O)C[C@H]1C(=O)NCC(=O)N1CCC[C@H]1C(=O)N1C[C@H](O)C[C@H]1C(=O)NCC(=O)NCC(N)=O [AchE-HG-N1, Ac-GPO-GPO-GPO-GRK-GRO-GPO-GPO-GPO-GG-NH2] (Ac-GP[Hyp]GP[Hyp]GP[Hyp]GRKGR[Hyp]GP[Hyp]GP[Hyp]GP[Hyp]GG-NH2) | 22.2 | −0.6
CC(=O)NCC(=O)N1CCC[C@H]1C(=O)N1C[C@H](O)C[C@H]1C(=O)NCC(=O)N1CCC[C@H]1C(=O)N1C[C@H](O)C[C@H]1C(=O)NCC(=O)N[C@@H](CCCNC(=N)N)C(=O)N1C[C@H](O)C[C@H]1C(=O)NCC(=O)N[C@@H](CCCNC(=N)N)C(=O)N[C@@H](CCCCN)C(=O)NCC(=O)N[C@@H](CCCNC(=N)N)C(=O)N1C[C@H](O)C[C@H]1C(=O)NCC(=O)N1CCC[C@H]1C(=O)N1C[C@H](O)C[C@H]1C(=O)NCC(=O)N1CCC[C@H]1C(=O)N1C[C@H](O)C[C@H]1C(=O)NCC(=O)N1CCC[C@H]1C(=O)N1C[C@H](O)C[C@H]1C(=O)NCC(=O)NCC(N)=O [AchE-HG-N2, Ac-GPO-GPO-GRO-GRK-GRO-GPO-GPO-GPO-GG-NH2] (Ac-GP[Hyp]GP[Hyp]GR[Hyp]GRKGR[Hyp]GP[Hyp]GP[Hyp]GP[Hyp]GG-NH2) | 17.4 | 1.3
CC(=O)NCC(=O)N1CCC[C@H]1C(=O)N1C[C@H](O)C[C@H]1C(=O)NCC(=O)N1CCC[C@H]1C(=O)N1C[C@H](O)C[C@H]1C(=O)NCC(=O)N[C@@H](CCCNC(=N)N)C(=O)N1C[C@H](O)C[C@H]1C(=O)NCC(=O)N[C@@H](CCCNC(=N)N)C(=O)N[C@@H](CCCCN)C(=O)NCC(=O)N[C@@H](CCCNC(=N)N)C(=O)N1C[C@H](O)C[C@H]1C(=O)NCC(=O)N1CCC[C@H]1C(=O)N1C[C@H](O)C[C@H]1C(=O)NCC(=O)N1CCC[C@H]1C(=O)N1C[C@H](O)C[C@H]1C(=O)NCC(=O)N1CCC[C@H]1C(=O)N1C[C@H](O)C[C@H]1C(=O)NCC(=O)N1CCC[C@H]1C(=O)N1C[C@H](O)C[C@H]1C(=O)NCC(=O)N1CCC[C@H]1C(=O)N1C[C@H](O)C[C@H]1C(=O)NCC(N)=O [AchE-P126 (r), Ac-GPO-GPO-GRO-GRK-GRO-(GPO)5-G-NH2] (Ac-GP[Hyp]GP[Hyp]GR[Hyp]GRKGR[Hyp]GP[Hyp]GP[Hyp]GP[Hyp]GP[Hyp]GP[Hyp]G-NH2) | 30.0 | −2.6
CC(=O)NCC(=O)N1CCC[C@H]1C(=O)N1C[C@H](O)C[C@H]1C(=O)NCC(=O)N1CCC[C@H]1C(=O)N1C[C@H](O)C[C@H]1C(=O)NCC(=O)N[C@@H](CCCNC(=N)N)C(=O)N1C[C@H](O)C[C@H]1C(=O)NCC(=O)N[C@@H](CCCCN)C(=O)N[C@@H](CCCNC(=N)N)C(=O)NCC(=O)N[C@@H](CCCCN)C(=O)N[C@@H](CCC(N)=O)C(=O)NCC(=O)N[C@@H](CCC(N)=O)C(=O)N[C@@H](CCCCN)C(=O)NCC(=O)N1CCC[C@H]1C(=O)N1C[C@H](O)C[C@H]1C(=O)NCC(=O)N1CCC[C@H]1C(=O)N1C[C@H](O)C[C@H]1C(=O)NCC(=O)N1CCC[C@H]1C(=O)N1C[C@H](O)C[C@H]1C(=O)NCC(=O)N1CCC[C@H]1C(=O)N1C[C@H](O)C[C@H]1C(=O)NCC(N)=O [AchE-P231 (r), Ac-GPO-GPO-GRO-GKR-GKQ-GQK-(GPO)4-G-NH2] (Ac-GP[Hyp]GP[Hyp]GR[Hyp]GKRGKQGQKGP[Hyp]GP[Hyp]GP[Hyp]GP[Hyp]G-NH2) | 23.9 | −1.9
CC(=O)NCC(=O)N1CCC[C@H]1C(=O)N1C[C@H](O)C[C@H]1C(=O)NCC(=O)N[C@@H](CCCNC(=N)N)C(=O)N1C[C@H](O)C[C@H]1C(=O)NCC(=O)N[C@@H](CCCNC(=N)N)C(=O)N[C@@H](CCCNC(=N)N)C(=O)NCC(=O)N[C@@H](CCCNC(=N)N)C(=O)N1C[C@H](O)C[C@H]1C(=O)NCC(=O)N[C@@H](CC(C)C)C(=O)N[C@@H](CCCCN)C(=O)NCC(=O)N[C@@H](CCC(=O)O)C(=O)N[C@@H](CCC(N)=O)C(=O)NCC(=O)N1CCC[C@H]1C(=O)N1C[C@H](O)C[C@H]1C(=O)NCC(=O)N1CCC[C@H]1C(=O)N1C[C@H](O)C[C@H]1C(=O)NCC(=O)N1CCC[C@H]1C(=O)N1C[C@H](O)C[C@H]1C(=O)NCC(=O)N1CCC[C@H]1C(=O)N1C[C@H](O)C[C@H]1C(=O)NCC(=O)N[C@@H](Cc1ccc(O)cc1)C(N)=O [C1qA-15, Ac-GPO-GRO-GRR-GRO-GLK-GEQ-(GPO)4-GY-NH2] (Ac-GP[Hyp]GR[Hyp]GRRGR[Hyp]GLKGEQGP[Hyp]GP[Hyp]GP[Hyp]GP[Hyp]GY-NH2) | 23.3 | −7.4
CC[C@H](C)[C@H](NC(=O)CNC(=O)[C@@H]1C[C@@H](O)CN1C(=O)[C@@H]1CCCN1C(=O)CNC(C)=O)C(=O)N[C@@H](CCCNC(=N)N)C(=O)NCC(=O)N1CCC[C@H]1C(=O)N[C@@H](CCCCN)C(=O)NCC(=O)N[C@@H](CCC(N)=O)C(=O)N[C@@H](CCCCN)C(=O)NCC(=O)N[C@@H](CCC(=O)O)C(=O)N1C[C@H](O)C[C@H]1C(=O)NCC(=O)N[C@@H](CC(C)C)C(=O)N1C[C@H](O)C[C@H]1C(=O)NCC(=O)N1CCC[C@H]1C(=O)N1C[C@H](O)C[C@H]1C(=O)NCC(=O)N1CCC[C@H]1C(=O)N1C[C@H](O)C[C@H]1C(=O)NCC(=O)N1CCC[C@H]1C(=O)N1C[C@H](O)C[C@H]1C(=O)NCC(=O)N1CCC[C@H]1C(=O)N1C[C@H](O)C[C@H]1C(=O)NCC(=O)N[C@@H](Cc1ccc(O)cc1)C(N)=O [C1qC-67, Ac-GPO-GIR-GPK-GQK-GEO-GLO-(GPO)4-GY-NH2] (Ac-GP[Hyp]GIRGPKGQKGE[Hyp]GL[Hyp]GP[Hyp]GP[Hyp]GP[Hyp]GP[Hyp]GY-NH2) | 28.4 | −1.4
CC[C@H](C)[C@H](NC(=O)CNC(C)=O)C(=O)N[C@@H](CC(N)=O)C(=O)NCC(=O)N[C@@H](Cc1ccccc1)C(=O)N1C[C@H](O)C[C@H]1C(=O)NCC(=O)N[C@@H](CCCCN)C(=O)N[C@@H](CC(=O)O)C(=O)NCC(=O)N[C@@H](CCCNC(=N)N)C(=O)N[C@@H](CC(=O)O)C(=O)NCC(=O)N[C@H](C(=O)N[C@@H](CCCCN)C(=O)NCC(=O)N[C@@H](CCC(=O)O)C(=O)N[C@@H](CCCCN)C(=O)NCC(=O)N[C@@H](CCC(=O)O)C(=O)N1C[C@H](O)C[C@H]1C(=O)NCC(=O)N1CCC[C@H]1C(=O)N1C[C@H](O)C[C@H]1C(=O)NCC(=O)N1CCC[C@H]1C(=O)N1C[C@H](O)C[C@H]1C(=O)NCC(=O)N1CCC[C@H]1C(=O)N1C[C@H](O)C[C@H]1C(=O)NCC(=O)N1CCC[C@H]1C(=O)N1C[C@H](O)C[C@H]1C(=O)NCC(=O)NCC(N)=O)[C@@H](C)O [MBL 42-61, Ac-GIN-GFO-GKD-GRD-GTK-GEK-GEO-(GPO)4-GG-NH2] (Ac-GINGF[Hyp]GKDGRDGTKGEKGE[Hyp]GP[Hyp]GP[Hyp]GP[Hyp]GP[Hyp]GG-NH2) | 23.0 | −2.2
